From patent US10138261B2, “Ferrocenyl compounds” (The University of Birmingham, priority 2013, dated 2018)
Where two headings read alike, the source gives them in different places.

Legend:
[1] = tested on: murine leukemia cells (L1210); test: proliferation activity assay, L1210 cells; assay type: cell-based; details: read-out: IC50 (50% inhibitory concentration) L1210
[2] = tested on: non-cancerous human T-lymphocyte cells (CEM); test: proliferation activity assay, CEM cells; assay type: cell-based; details: read-out: IC50 (50% inhibitory concentration) CEM
[3] = tested on: human cervix carcinoma cells (Hela); test: proliferation activity assay, HeLa cells; assay type: cell-based; details: read-out: IC50 (50% inhibitory concentration) HeLa
[4] = tested on: oesophageal cancer cell lines OE 19 and OE 33
Vaccinia virus = test: microbe, parasite or virus in culture; assay type: cell-based; details: read-out: EC50 (required to reduce virus-induced cytopathogenicity by 50%) Vaccinia virus
[5] = tested on: Herpes simplex virus-1 TK^− KOS ACV^r; test: microbe, parasite or virus in culture; assay type: cell-based; details: read-out: EC50 (required to reduce virus-induced cytopathogenicity by 50%) Herpes simplex virus-1 TK^− KOS ACV^r
[6] = tested on: Vesicular stomatitis virus; test: microbe, parasite or virus in culture; assay type: cell-based; details: read-out: EC50 (required to reduce virus-induced cytopathogenicity by 50%) Vesicular stomatitis virus
[7] = tested on: Herpes simplex virus-2 (G); test: microbe, parasite or virus in culture; details: Human alphaherpesvirus 2, HeLa, read-out: EC50 (required to reduce virus-induced cytopathogenicity by 50%) Herpes simplex virus-2 (G)
[8] = tested on: Herpes simplex virus-1 (KOS); test: microbe, parasite or virus in culture; details: Human alphaherpesvirus 1, HeLa, read-out: EC50 (required to reduce virus-induced cytopathogenicity by 50%) Herpes simplex virus-1 (KOS)
Hela cells = test: minimum cytotoxic concentration in antiviral assay host cells (Table 2)
[9] = tested on: Herpes simplex virus-2 (G); details: read-out: EC50 (required to reduce virus-induced cytopathogenicity by 50%) Herpes simplex virus-2 (G); Hela cells
[10] = tested on: cells lacking (TK negative) or possessing (TK positive) the phosphorylation enzyme; details: cell death curves, FIG. 3
[11] = tested on: Herpes simplex virus-1 (KOS); details: read-out: EC50 (required to reduce virus-induced cytopathogenicity by 50%) Herpes simplex virus-1 (KOS); Hela cells
[12] = even at higher concentrations of 25 μM
[13] = Vesicular stomatitis virus, HeLa

Compound	IC50 [1]	IC50 [2]	IC50 [3]	inhibition of cell growth [4, 12]	EC50 (Vaccinia virus; Orthopoxvirus vaccinia, HeLa)	EC50 ([5]; Human alphaherpesvirus 1, HeLa)	EC50 [6, 13]	also measured
1-(Thyminyl-)ethyl-ferrocene [Compound 4]	417 µM	592 µM	509 µM	ineffective at inhibiting cell growth	–	–	–	–
1-[2-(Adenin-9-yl)ethyl]-ferrocene [Compound 5]	–	–	–	ineffective at inhibiting cell growth	–	–	–	–
1-[α-Methyl-(3-(hydroxy)propyl)]ferrocene [Compound 3]	12.3 µM	38.7 µM	45.2 µM	ineffective at inhibiting cell growth	–	–	–	–
Nc1nc2c(ncn2COCCO)c(=O)[nH]1 [Acyclovir]	–	–	–	–	> 250 µM	50 µM	> 250 µM	–
O=c1[nH]c(=O)n([C@H]2C[C@H](O)[C@@H](CO)O2)cc1/C=C/Br [Brivudin]	–	–	–	–	10 µM	50 µM	> 250 µM	EC50 [7]: 183 µM; EC50 [8]: 0.02 µM; Minimum cytotoxic concentration (required to cause a microscopically detectable alteration of normal cell morphology) (Hela cells): >250 μM
Nc1ccn(C[C@@H](CO)OCP(=O)(O)O)c(=O)n1 [Cidofovir]	–	–	–	–	17 µM	0.9 µM	> 250 µM	EC50 [7]: 2 µM; EC50 [8]: 2 µM; Minimum cytotoxic concentration (required to cause a microscopically detectable alteration of normal cell morphology) (Hela cells): >250 μM
N.N.[Cl][Pt][Cl] [Cisplatin]	1 µM	0.9 µM	1.2 µM	–	–	–	–	–
Nc1nc(O)c2ncn(COC(CO)CO)c2n1 [Ganciclovir]	–	–	–	–	> 100 µM	10 µM	> 100 µM	–
(S,Rp)-1-[α-Methyl-(3-(hydroxy)propyl)]-2-[2-(-adenin-9-yl)ethyl]-ferrocene [Compound 2]	–	–	–	–	–	–	–	inhibition of cell growth ([4]; 6.25 μM, 4-day experiment): inhibited cell growth
(S,Rp)-1-[α-Methyl-(3-(hydroxy)propyl)]-2-[(thyminyl)ethyl]-ferrocene [Compound 1]	0.78 µM	0.9 µM	2.68 µM	–	–	–	–	EC50 (Vaccinia virus): 21.6 µM; EC50 ([5]; Hela cells): 9.6 µM; EC50 [9]: 2.4 µM; cell survival, TK negative versus TK positive cells [10]: the cells lacking the phosphorylation enzyme (TK negative) survive more than the cells that possess the phosphorylation enzyme (TK positive); inhibition of cell growth ([4]; 6.25 μM, 4-day experiment): inhibited cell growth; EC50 [11]: 2.4 µM; EC50 [6]: 48 µM
